Reference: PubChem BioAssay AID1963425 (Molecular Pharmacology Branch, DTP, NCI, 2024)

Tested on: 323965-272-R-J2-PDC complex spheroid growth, % test/control
Assay: Anticancer human tumor 323965-272-R-J2-PDC patient-derived pancreatic carcinoma cell line growth inhibition [Asc]
Details: for IC50: curve of first compound; for viability, T/C: stronger effect = lower value
Outline: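 Complex spheroids combining tumor cells with HUVEC endothelial cells and human MSCs, at 37 degrees C, 5% CO2; agents tested alone or combined, half-log dilutions from at or near clinical Cmax, or 10 microM if Cmax unknown.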
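Also: compound exposure lasted 7 days starting three days after spheroid seeding.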
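For viability, T/C in this document: 100% = DMSO vehicle control wells with viability set relative to vehicle.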

Cc1nc(N2CCC3(CC2)COC(C)C3N)c(CO)nc1Sc1ccnc(N)c1Cl (configuration not stated) + CCN1C(C(=O)NC23CCC(C(=O)O)(CC2)CC3)C(c2cccc(Cl)c2F)C2(C(=O)Nc3cc(Cl)ccc32)C12CCCCC2
IC50 (second compound 0.00949 µM): 1560 nM
IC50 (second compound 0.03 µM): > 3000 nM
IC50 (second compound 0.0949 µM): > 3000 nM
IC50 (second compound 0.3 µM): 1700 nM
IC50 (second compound 0.949 µM): 1640 nM
IC50 (second compound 3 µM): 929 nM
viability, T/C (second compound 0.00949 µM, first compound 0.00949 µM): 107%
viability, T/C (second compound 0.00949 µM, first compound 0.03 µM): 89%
viability, T/C (second compound 0.00949 µM, first compound 0.0949 µM): 85.4%
viability, T/C (second compound 0.00949 µM, first compound 0.3 µM): 62.7%
viability, T/C (second compound 0.00949 µM, first compound 0.949 µM): 57.3%
viability, T/C (second compound 0.00949 µM, first compound 3 µM): 42.9%
viability, T/C (second compound 0.03 µM, first compound 0.00949 µM): 104%
viability, T/C (second compound 0.03 µM, first compound 0.03 µM): 91.8%
viability, T/C (second compound 0.03 µM, first compound 0.0949 µM): 80.4%
viability, T/C (second compound 0.03 µM, first compound 0.3 µM): 67.8%
viability, T/C (second compound 0.03 µM, first compound 0.949 µM): 59%
viability, T/C (second compound 0.03 µM, first compound 3 µM): 50.4%
viability, T/C (second compound 0.0949 µM, first compound 0.00949 µM): 109%
viability, T/C (second compound 0.0949 µM, first compound 0.03 µM): 84.9%
viability, T/C (second compound 0.0949 µM, first compound 0.0949 µM): 86.1%
viability, T/C (second compound 0.0949 µM, first compound 0.3 µM): 65.3%
viability, T/C (second compound 0.0949 µM, first compound 0.949 µM): 61.7%
viability, T/C (second compound 0.0949 µM, first compound 3 µM): 51.2%
viability, T/C (second compound 0.3 µM, first compound 0.00949 µM): 102%
viability, T/C (second compound 0.3 µM, first compound 0.03 µM): 86.3%
viability, T/C (second compound 0.3 µM, first compound 0.0949 µM): 82.7%
viability, T/C (second compound 0.3 µM, first compound 0.3 µM): 68.6%
viability, T/C (second compound 0.3 µM, first compound 0.949 µM): 54.2%
viability, T/C (second compound 0.3 µM, first compound 3 µM): 44.6%
viability, T/C (second compound 0.949 µM, first compound 0.00949 µM): 105%
viability, T/C (second compound 0.949 µM, first compound 0.03 µM): 95.8%
viability, T/C (second compound 0.949 µM, first compound 0.0949 µM): 88.3%
viability, T/C (second compound 0.949 µM, first compound 0.3 µM): 63.6%
viability, T/C (second compound 0.949 µM, first compound 0.949 µM): 57.8%
viability, T/C (second compound 0.949 µM, first compound 3 µM): 44.2%
viability, T/C (second compound 3 µM, first compound 0.00949 µM): 91.2%
viability, T/C (second compound 3 µM, first compound 0.03 µM): 83.3%
viability, T/C (second compound 3 µM, first compound 0.0949 µM): 71.7%
viability, T/C (second compound 3 µM, first compound 0.3 µM): 60%
viability, T/C (second compound 3 µM, first compound 0.949 µM): 53.6%
viability, T/C (second compound 3 µM, first compound 3 µM): 35.4%
